Measurements taken from PubChem BioAssay (NCI).
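Here, GI50 denotes the concentration required for 50% inhibition of growth. TGI denotes the concentration required for complete inhibition of growth.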

Columns and labels:
Assay in all cases: NCI-60 cell line screen, 384-well format
[1] = system: COLO 205 colon
[2] = system: UACC-257 melanoma
[3] = system: SK-OV-3 ovarian
[4] = system: IGROV1 ovarian
[5] = system: SK-MEL-28 melanoma
[6] = system: HCT-116 colon
[7] = system: SNB-19 CNS
[8] = system: NCI-H23 lung
[9] = system: MDA-MB-435 melanoma
[10] = system: RPMI-8226 leukemia
[11] = system: NCI-H322M lung
[12] = system: SK-MEL-5 melanoma
[13] = system: RXF 393 renal
[14] = system: SF-539 CNS
[15] = system: NCI-H522 lung
[16] = system: MOLT-4 leukemia
[17] = system: A498 renal
[18] = system: MDA-MB-468 breast
[19] = system: 786-0 renal
[20] = system: M14 melanoma
[21] = system: MCF7 breast
[22] = system: PC-3 prostate
[23] = system: UACC-62 melanoma
[24] = system: NCI/ADR-RES ovarian
[25] = system: NCI-H226 lung
[26] = system: HCC-2998 colon
[27] = system: K-562 leukemia
[28] = system: HT29 colon
[29] = system: TK-10 renal
[30] = system: T-47D breast
[31] = system: HOP-92 NSCLC
[32] = system: MDA-MB-231 breast
[33] = system: OVCAR-4 ovarian
[34] = system: SF-295 CNS
[35] = system: SW-620 colon
[36] = system: SN12C renal
[37] = system: MALME-3M melanoma
[38] = system: HL-60(TB) leukemia
[39] = system: UO-31 renal
[40] = system: OVCAR-5 ovarian
[41] = system: DU-145 prostate
[42] = system: KM12 colon
[43] = system: ACHN renal
[44] = system: HCT-15 colon
[45] = system: A549 NSCLC
[46] = system: NCI-H460 NSCLC
[47] = system: SR leukemia
[48] = system: OVCAR-3 ovarian
[49] = system: CCRF-CEM leukemia
[50] = system: SF-268 CNS
[51] = system: SK-MEL-2 melanoma
[52] = system: LOX IMVI melanoma
[53] = system: CAKI-1 renal
[54] = system: OVCAR-8 ovarian
[55] = system: HOP-62 NSCLC
[56] = system: BT-549 breast
[57] = system: U251 glioblastoma
[58] = system: EKVX NSCLC
[59] = system: HS 578T breast
[60] = system: SNB-75 CNS

For C[C@H](c1ccc(Cl)cc1N)N1C(=O)c2cc(I)ccc2N(CCCN2CCN(C)CC2)C(=O)[C@@H]1c1ccc(Cl)cc1, the GI50 [1] was 1.64 µM, the TGI [1] was 3.02 µM and the GI50 [2] was 1.22 µM. For the same compound, the TGI [2] was 2.47 µM, the GI50 [3] was 1.52 µM and the TGI [3] was 2.85 µM. For the same compound, the GI50 [4] was 1.21 µM, the TGI [4] was 2.47 µM and the GI50 [5] was 1.59 µM. The TGI [5] was 2.95 µM, the GI50 [6] was 0.613 µM and the TGI [6] was 1.95 µM. The GI50 [7] was 1.71 µM, the TGI [7] was 3.09 µM and the GI50 [8] was 1.57 µM. It also gave a TGI [8] of 2.92 µM, a GI50 [9] of 1.71 µM and a TGI [9] of 3.08 µM. It also gave a GI50 [10] of 0.0209 µM, a TGI [10] of 0.191 µM and a GI50 [11] of 1.77 µM. For the same compound, the TGI [11] was 3.17 µM, the GI50 [12] was 1.11 µM and the TGI [12] was 2.31 µM. It also gave a GI50 [13] of 0.848 µM, a TGI [13] of 2.12 µM and a GI50 [14] of 1.64 µM. The TGI [14] was 3.01 µM, the GI50 [15] was 1.54 µM and the TGI [15] was 2.88 µM. It also gave a GI50 [16] of 0.144 µM, a TGI [16] of 0.279 µM and a GI50 [17] of 0.779 µM. For the same compound, the TGI [17] was 2.04 µM, the GI50 [18] was 1.71 µM and the TGI [18] was 3.09 µM. For the same compound, the GI50 [19] was 1.6 µM, the TGI [19] was 2.96 µM and the GI50 [20] was 1.14 µM. It also gave a TGI [20] of 2.36 µM, a GI50 [21] of 1.06 µM and a TGI [21] of 2.26 µM. The GI50 [22] was 1.66 µM, the TGI [22] was 3.04 µM and the GI50 [23] was 0.591 µM. For the same compound, the TGI [23] was 1.95 µM, the GI50 [24] was 1.59 µM and the TGI [24] was 2.95 µM. It also gave a GI50 [25] of 0.649 µM, a TGI [25] of 1.98 µM and a GI50 [26] of 1.25 µM. It also gave a TGI [26] of 2.5 µM, a GI50 [27] of 1.29 µM and a TGI [27] of 2.58 µM. For the same compound, the GI50 [28] was 1.68 µM, the TGI [28] was 3.08 µM and the GI50 [29] was 1.58 µM. It also gave a TGI [29] of 2.92 µM, a GI50 [30] of 1.46 µM and a TGI [30] of 2.78 µM. For the same compound, the GI50 [31] was 1.13 µM, the TGI [31] was 2.34 µM and the GI50 [32] was 1.61 µM. The TGI [32] was 2.96 µM, the GI50 [33] was 1.56 µM and the TGI [33] was 2.9 µM. The GI50 [34] was 1.7 µM, the TGI [34] was 3.08 µM and the GI50 [35] was 1.78 µM. It also gave a TGI [35] of 3.19 µM, a GI50 [36] of 1.59 µM and a TGI [36] of 2.94 µM. The GI50 [37] was 1.06 µM, the TGI [37] was 2.25 µM and the GI50 [38] was 0.255 µM. It also gave a TGI [38] of 0.641 µM, a GI50 [39] of 1.15 µM and a TGI [39] of 2.37 µM. The GI50 [40] was 1.77 µM, the TGI [40] was 3.16 µM and the GI50 [41] was 1.76 µM. The TGI [41] was 3.16 µM, the GI50 [42] was 1.56 µM and the TGI [42] was 2.92 µM. It also gave a GI50 [43] of 0.965 µM, a TGI [43] of 2.16 µM and a GI50 [44] of 1.68 µM. It also gave a TGI [44] of 3.06 µM, a GI50 [45] of 1.06 µM and a TGI [45] of 2.26 µM. For the same compound, the GI50 [46] was 0.67 µM, the TGI [46] was 2 µM and the GI50 [47] was 0.144 µM. The TGI [47] was 0.28 µM, the GI50 [48] was 1.45 µM and the TGI [48] was 2.78 µM. It also gave a GI50 [49] of 1.41 µM, a TGI [49] of 2.72 µM and a GI50 [50] of 1.77 µM. The TGI [50] was 3.16 µM, the GI50 [51] was 1.59 µM and the TGI [51] was 2.94 µM. It also gave a GI50 [52] of 1.7 µM, a TGI [52] of 3.09 µM and a GI50 [53] of 0.482 µM. For the same compound, the TGI [53] was 1.78 µM, the GI50 [54] was 1.73 µM and the TGI [54] was 3.12 µM. The GI50 [55] was 1.62 µM, the TGI [55] was 2.98 µM and the GI50 [56] was 1.55 µM. For the same compound, the TGI [56] was 2.9 µM, the GI50 [57] was 1.64 µM and the TGI [57] was 3.02 µM.

COc1cc(N2CCC(N3CCN(C)CC3)CC2)ccc1Nc1ncc(Cl)c(Nc2ccccc2P(C)(C)=O)n1 was tested, and the GI50 [1] was 1.65 µM, the TGI [1] was 4 µM and the GI50 [2] was greater than 100 µM. The TGI [2] was greater than 100 µM, the GI50 [3] was 2.45 µM and the TGI [3] was 5.89 µM. The GI50 [4] was 1.18 µM, the TGI [4] was 3.7 µM and the GI50 [5] was greater than 100 µM. For the same compound, the TGI [5] was greater than 100 µM, the GI50 [6] was 2.82 µM and the TGI [6] was greater than 77 µM. It also gave a GI50 [7] of 5.97 µM, a TGI [7] greater than 100 µM and a GI50 [8] of 1.87 µM. The TGI [8] was 5.19 µM, the GI50 [9] was 25.5 µM and the TGI [9] was greater than 100 µM. It also gave a GI50 [10] of 1.77 µM, a TGI [10] of 5.38 µM and a GI50 [58] of 1.46 µM. The TGI [58] was 3.48 µM, the GI50 [59] was 1.86 µM and the TGI [59] was 4.89 µM. For the same compound, the GI50 [11] was 2.08 µM, the TGI [11] was 6.39 µM and the GI50 [12] was 4.72 µM. It also gave a TGI [12] greater than 100 µM, a GI50 [13] of 2.09 µM and a TGI [13] of 4.52 µM. For the same compound, the GI50 [14] was 1.97 µM, the TGI [14] was 4.23 µM and the GI50 [15] was 1.16 µM. It also gave a TGI [15] of 4.17 µM, a GI50 [16] of 1.9 µM and a TGI [16] of 4.1 µM. The GI50 [17] was 2.32 µM, the TGI [17] was 6.1 µM and the GI50 [18] was 2.01 µM. It also gave a TGI [18] of 6.18 µM, a GI50 [19] of 3.22 µM and a TGI [19] greater than 43.8 µM. It also gave a GI50 [20] of 3.48 µM, a TGI [20] greater than 100 µM and a GI50 [21] of 2.07 µM. The TGI [21] was greater than 100 µM, the GI50 [22] was 5.55 µM and the TGI [22] was greater than 100 µM. It also gave a GI50 [23] of 3.5 µM, a TGI [23] greater than 100 µM and a GI50 [24] greater than 100 µM. The TGI [24] was greater than 100 µM, the GI50 [25] was 0.49 µM and the TGI [25] was 2.53 µM. The GI50 [28] was 1.11 µM, the TGI [28] was greater than 100 µM and the GI50 [29] was 3.92 µM. For the same compound, the TGI [29] was greater than 100 µM, the GI50 [30] was greater than 25.8 µM and the TGI [30] was greater than 100 µM. The GI50 [31] was 1.17 µM, the TGI [31] was 3 µM and the GI50 [60] was 2.75 µM. It also gave a TGI [60] of 6.73 µM, a GI50 [32] of 2.03 µM and a TGI [32] of 6.47 µM. The GI50 [33] was 2.41 µM, the TGI [33] was 8.64 µM and the GI50 [34] was 2.92 µM. The TGI [34] was greater than 29.5 µM, the GI50 [35] was 4.95 µM and the TGI [35] was greater than 100 µM. The GI50 [36] was 2.3 µM, the TGI [36] was 11.1 µM and the GI50 [37] was 3.09 µM. For the same compound, the TGI [37] was greater than 66.9 µM, the GI50 [38] was 3.35 µM and the TGI [38] was greater than 35.6 µM. For the same compound, the GI50 [39] was 4.2 µM, the TGI [39] was greater than 62 µM and the GI50 [40] was 2.39 µM. It also gave a TGI [40] greater than 46.9 µM, a GI50 [41] of 2.5 µM and a TGI [41] of 10.5 µM. The GI50 [42] was 3.74 µM, the TGI [42] was greater than 100 µM and the GI50 [43] was 3.21 µM. It also gave a TGI [43] greater than 43.9 µM, a GI50 [44] of 5.29 µM and a TGI [44] greater than 100 µM. It also gave a GI50 [45] of 2.1 µM, a TGI [45] greater than 23.4 µM and a GI50 [46] of 4.35 µM. The TGI [46] was greater than 100 µM, the GI50 [47] was 0.0248 µM and the TGI [47] was 0.0545 µM. The GI50 [48] was 2.22 µM, the TGI [48] was greater than 28.5 µM and the GI50 [49] was 3.45 µM. The TGI [49] was 9.7 µM, the GI50 [50] was 2.38 µM and the TGI [50] was greater than 25.7 µM. The GI50 [52] was 3.07 µM, the TGI [52] was 17.8 µM and the GI50 [53] was 2.38 µM. It also gave a TGI [53] of 6.28 µM, a GI50 [54] of 6.55 µM and a TGI [54] greater than 100 µM. The GI50 [55] was 2.33 µM, the TGI [55] was greater than 50.2 µM and the GI50 [56] was 2.28 µM. It also gave a TGI [56] of 5.08 µM, a GI50 [57] of 6.2 µM and a TGI [57] greater than 100 µM.
